# Assay results as given in patent US7638547B2, “Cis-alkoxy-substituted spirocyclic 1H-pyrrolidine-2,4-dione derivatives serving as pesticides” (Bayer CropScience AG, priority 2002, dated 2009).
# Tests used:
# [1] = test system: greenhouse red spider mite (Tetranychus urticae); assay: Tetranychus Test, OP-resistant/dip treatment (Example J); assay type: in vivo; conditions: 4 ppm active compound, bean plants dipped, OP-resistant
# [2] = test system: peach aphid (Myzus persicae); assay: Myzus Test (Example F); assay type: in vivo; conditions: 4 ppm active compound, cabbage leaves dipped
# Source text: (§1) Solvent: 7 parts by weight of dimethylformamide
# [3] = test system: caterpillars of the armyworm (Spodoptera frugiperda); assay: Spodoptera frugiperda Test (Example H); assay type: in vivo; conditions: 100 ppm active compound, cabbage leaves dipped
# Source text: as §1
# [4] = test system: larvae of the mustard beetle (Phaedon cochleariae); assay: Phaedon Larvae Test (Example G); conditions: 100 ppm active compound, cabbage leaves dipped
# [5] = test system: caterpillars of the diamondback moth (Plutella xylostella/resistant strain); assay: Plutella Test, resistant strain (Example D); assay type: in vivo; conditions: 4 ppm active compound, cabbage leaves dipped
# Source text: as §1
# [6] = test system: Heliothis virescens caterpillars; assay: Heliothis virescens Test (Example B); assay type: in vivo; conditions: 500 ppm active compound, soybean shoots dipped
# Source text: as §1
# [7] = test system: cotton aphid (Aphis gossypii); assay: Aphis gossypii Test (Example A); assay type: in vivo; conditions: 20 ppm active compound, cotton leaves dipped
# Source text: as §1
# [8] = test system: larvae of the mustard beetle (Phaedon cochleariae); assay: Phaedon Larvae Test (Example C); conditions: cabbage leaves dipped
# [9] = test system: greenhouse red spider mite (Tetranychus urticae); assay: Tetranychus Test, OP-resistant/spray treatment (Example I); assay type: in vivo; conditions: 100 ppm active compound, bean leaf discs sprayed, OP-resistant
# Experimental: Solvents: 78 parts by weight of acetone
# • 1.5 parts by weight of dimethylformamide Emulsifier: 0.5 part by weight of alkylaryl polyglycol ether
# After the desired period of time, the activity in % is determined.
compound,measurement,setting,value
CCOC(=O)OC1=C(c2cc(Br)ccc2C)C(=O)N[C@]12CC[C@@H](OC)CC2 [Example I-c-4],Kill rate in % after 7^d,[1],40%
same,Kill rate in % after 6^d,[2],50%
same,Kill rate in % after 7^d,[3],20%
same,Kill rate in % after 7^d,[4],25%
CCOC(=O)OC1=C(c2cc(C)ccc2Br)C(=O)N[C@]12CC[C@@H](OC)CC2 [Example I-c-2],Kill rate in % after 6^d,[5],100%
same,Kill rate in % after 6^d,[6],100%
CCOC(=O)OC1=C(c2cc(C)ccc2C)C(=O)N[C@]12CC[C@@H](OC)CC2 [Example I-c-1],Kill rate in % after 6^d,[7],90%
same,Kill rate in % after 7^d,[8]; 20 ppm active compound,80%
same,Kill rate in % after 7^d,[8]; 100 ppm active compound,100%
CCOC1CCC2(CC1)NC(=O)C(c1cc(C)ccc1Cl)=C2OC(=O)C(C)C (stereo not drawn),Kill rate in % after 4^d,[9],70%
CO[C@H]1CC[C@]2(CC1)NC(=O)C(c1cc(C)ccc1C)=C2O [Example I-a-1],Kill rate in % after 7^d,[3],50%
same,Kill rate in % after 7^d,[4],100%
